# Laboratory results taken from US20240182472A1, “INDAZOLE PYRIDONE COMPOUNDS AND USES THEREOF” (Bluejay Therapeutics, Inc., priority 2022, published 2024).
# Read-outs that look alike come from different tables or passages of the source.
# Columns and labels:
# [1] = monkeys, starting at 4 weeks, more pronounced effect at 13 weeks; cited from earlier work
# [2] = cited from earlier work
# [3] = system: HBV S-antigen secretion; experiment: HBsAg assay (HepG2 HBV S-antigen secretion biological assay); assay type: cell-based; settings: Hepatitis B virus, HepG2.2.15, 72 h, read-out: EC50, HBV S-antigen secretion
# Method: HepG2.2.15 cells were grown in flasks microscopically and seeded into 96-well plates at a concentration of 6.0×10^4 cells/well and incubated at 37° C., 5% CO2 overnight.
# Source plate preparation. The stock concentration of reference compound and test compounds is 20 mM. Firstly, manually diluted the compound to obtain the first concentration points of 10 μM and 200 μM, respectively. Then a 3-fold, 8 points serial dilution is performed to obtain the 200× source plate.
# Source plate compounds were pipetted as follows: 3 μL 200× source plate compounds into sterile 2 mL 96 well plate which contain 297 μL 2% FBS Medium, mix well and transfer 100 μL/well to corresponding cell culture plates. Therefore, the test conditions of the final compounds is 1 μM initiation, 3-fold serial dilution, and 8 concentration points in duplicate.
# Incubate the cells at 37° C., 5% CO2 for three days.
# 24 hours post-seeding, the cells were treated with 200 μl/well of media containing serially diluted compounds in DMSO. DMSO alone was used as the no drug control. The final DMSO concentration in all wells was 0.5%.
# The HBsAg kit (Auto Biology-CL 0310) was used to determine the level of secreted HBVsAg. The HBSAg assay was performed as follows: • a) Blance the ELISA kit at room temperature for 30 minutes. • b) Add 50 μL standard solution, sample, positive and negative control to each well of the microplate in the kit. • c) Add 50 μL HBsAg enzyme conjugate to each well. • d) Attach the plate membrane, oscillate for 60 seconds, and incubate at 37° C. for 60 minutes. • e) Add 350 μL washing buffer to each well, shake slightly, discard liquid, repeat 6 times. Then pat 5 times on an absorbent paper towel to dry the hole. • f) Add 50 μL mixture of reagent A and B to each well. Oscillate the microplate for 10 seconds. • g) Cover the plate membrane and incubate at room temperature for 10 minutes. Read the luminescent signal using Biotek-Synergy 2.
# Compounds inhibition against HBsAg at different concentrations are calculated by the following formula:
# Inhibition %=(1−value of sample/ave. value of control)×100
# 50% effective concentrations (EC50) and were calculated with the GraphPad Prism software.
# [4] = target: T1, OATP1B1 (Homo sapiens, UniProt Q9Y6L6); assay type: in vitro ADME
# T1 construct: host or cells: HEK293 (HEK293-OATP1B1), stably transfected
# T1 sequence (Q9Y6L6 1-691): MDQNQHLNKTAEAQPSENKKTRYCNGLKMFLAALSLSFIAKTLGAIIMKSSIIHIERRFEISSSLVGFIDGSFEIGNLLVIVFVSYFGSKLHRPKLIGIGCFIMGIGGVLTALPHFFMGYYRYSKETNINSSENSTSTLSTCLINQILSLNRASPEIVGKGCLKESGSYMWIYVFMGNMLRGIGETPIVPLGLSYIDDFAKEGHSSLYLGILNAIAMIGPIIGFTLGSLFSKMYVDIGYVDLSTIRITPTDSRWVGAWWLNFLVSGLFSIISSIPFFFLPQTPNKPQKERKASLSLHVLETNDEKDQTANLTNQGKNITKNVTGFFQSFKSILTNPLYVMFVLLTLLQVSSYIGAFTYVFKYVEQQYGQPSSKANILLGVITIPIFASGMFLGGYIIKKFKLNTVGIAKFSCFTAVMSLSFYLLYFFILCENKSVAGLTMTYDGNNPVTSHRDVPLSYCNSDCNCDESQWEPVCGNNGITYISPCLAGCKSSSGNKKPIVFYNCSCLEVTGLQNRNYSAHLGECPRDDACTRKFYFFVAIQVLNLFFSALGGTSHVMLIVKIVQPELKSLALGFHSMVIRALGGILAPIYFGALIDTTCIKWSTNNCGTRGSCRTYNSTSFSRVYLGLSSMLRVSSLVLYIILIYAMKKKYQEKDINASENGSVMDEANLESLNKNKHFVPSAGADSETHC
# Method: (§1) The OATP1B1 and OATP1B3 substrate assays were conducted at Wuxi utilizing the human embryonic kidney cell line, HEK293, stably transfected with human transporter genes. The identification of potential transporter substrates are achieved by measuring the Uptake Fold values in the transfected HEK293-OATP1B1 and OATP1B3 cells line and the HEK293-MOCK cell line in the Presence and Absence of positive inhibitors.
# (§2) The objective of this study was to determine whether Compound I.2 and Compound I.6 are potential OATP1B1 and OATP1B3 uptake substrates.
# (§3) HEK-293 cells stably expressing the human OATP1B1 and OATP1B3 transporter and the HEK293-MOCK cell line were licensed from GenoMembrane (Kanagawa, Japan). The culture medium was DMEM (HEK293-OATP1B3 cells were maintained in DMEM/F12) supplemented with 10.0% FBS, 500 μg/mL G418 sulfate solution, 100 U/mL penicillin-G and 100 μg/mL streptomycin. Cells were incubated in 5.0% CO2 at 37.0° C. with saturated humidity. HEK293-OATP1B1 (Passage: 19), OATP1B3 (Passage: 19), and HEK293-MOCK (Passage: 14 and 16) were grown to 80.0 to 90.0% confluence in the culture flask. Trypsin/EDTA (0.05%/0.02%, w/v) was added to detach the cells from the flask. The cells were seeded onto 96-well plates with a density of 5.00×10^4 cells/well, and then incubated for 24 hours in 5.0% CO2 at 37.0° C. with saturated humidity before being used in the uptake study.
# (§4) Pre-incubation: Cell culture medium was removed from the 96-well plates seeded with either HEK293-OATP1B1 and OATP1B3 or HEK293-MOCK cells, followed by rinsing the cells twice with the warm (37.0° C.) Transport Buffer. The cells were then pre-incubated for 30 min with the Transport Buffer in the Presence and Absence of positive inhibitors in 5.0% CO2 at 37.0° C. with saturated humidity.
# (§5) Uptake incubation: At the end of the pre-incubation, the buffers were removed and the cells were treated with Compound I.6 or Compound I.2 at 0.100 or 1.00 μM in the presence and absence of positive inhibitor. In separate wells, the marker substrate for transporter cells were incubated with dosing solution (Table A), all treatments were conducted in triplicate wells in 5.0% CO2 at 37.0° C. with saturated humidity.
# (§6) Cell lysing: At the end of the incubations, dosing solution was removed. After removing the remaining dosing solution, the cell was rinsed three times with ice-cold Transport Buffer (2.0-8.0° C.) followed by adding 100 μL cold acetonitrile:methanol (95: 5, v: v) containing internal standard into the cells treated with test compound for bioanalysis. For the cells dosed with positive control, the cells were added 100 μL cold acetonitrile:methanol (95:5, v: v) containing internal standard for bioanalysis. All samples were gently shaken for 30 min. Then for test compound and positive control, 75 μL of the cell lysate was mixed with 75 μL of Transport Buffer and 150 μL of cold acetonitrile:methanol (95:5, v:v) containing internal standard. The lysis sample was centrifuged for 10 min at 3220×g before the supernatant, defined as the terminal sample, was taken for the determination of the intracellular uptake of the test compounds or substrate by LC-MS/MS.
# (§7) Uptake Fold was calculated using equation (1)
# [5] = target: T2, OATP1B3 (Homo sapiens, UniProt Q9NPD5); assay type: in vitro ADME
# T2 construct: host or cells: HEK293 (HEK293-OATP1B3), stably transfected
# T2 sequence (Q9NPD5 1-702): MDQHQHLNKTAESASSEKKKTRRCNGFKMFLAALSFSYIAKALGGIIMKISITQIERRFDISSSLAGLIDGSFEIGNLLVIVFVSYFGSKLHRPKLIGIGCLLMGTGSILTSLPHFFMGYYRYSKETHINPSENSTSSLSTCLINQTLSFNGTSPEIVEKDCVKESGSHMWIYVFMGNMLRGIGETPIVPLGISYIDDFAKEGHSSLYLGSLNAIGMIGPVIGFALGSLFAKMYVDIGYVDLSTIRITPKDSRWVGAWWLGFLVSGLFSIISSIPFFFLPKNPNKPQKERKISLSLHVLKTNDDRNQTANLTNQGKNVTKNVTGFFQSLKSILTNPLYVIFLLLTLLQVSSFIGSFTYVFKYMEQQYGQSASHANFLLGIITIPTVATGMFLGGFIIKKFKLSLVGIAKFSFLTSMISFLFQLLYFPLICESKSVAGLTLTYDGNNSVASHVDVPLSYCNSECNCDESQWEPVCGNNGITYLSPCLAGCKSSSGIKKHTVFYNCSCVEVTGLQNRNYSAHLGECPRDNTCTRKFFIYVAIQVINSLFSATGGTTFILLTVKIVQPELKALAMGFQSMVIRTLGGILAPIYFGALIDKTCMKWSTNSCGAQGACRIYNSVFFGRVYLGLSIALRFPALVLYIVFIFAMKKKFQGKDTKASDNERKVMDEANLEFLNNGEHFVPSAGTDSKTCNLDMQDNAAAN
# Method: as §1, §2, §3, §4, §5, §6, §7
Compound,nerve conduction velocity (NCV) of several peripheral nerves [1],"change from baseline of rat caudal nerve NCV, digital NCV, cauda equina latency, digital latency, tibial nerve latency ([2]; 13 weeks, daily doses 20 MPK/day and 60 MPK/day)","nerve conduction velocity (NCV) of several peripheral nerves ([2]; rats, starting at 4 weeks, more pronounced effect at 13 weeks)",EC50 [3] [nM],Uptake ratio ([4]; 0.1 μM),Uptake ratio ([4]; 1 μM),Uptake ratio ([5]; 0.1 μM),Uptake ratio ([5]; 1 μM)
COCCOc1cc2c(cc1COC)-c1cc(=O)c(C(=O)O)cn1N1[C@@H]2CCC1(C)C [GS-8873],prolong the nerve conduction velocity,greater than 20%,prolong the nerve conduction velocity,–,–,–,–,–
"CC(C)(C)[C@@H]1Cn2nc3c(OCCCCCCC(=O)O)cccc3c2-c2cc(=O)c(C(=O)O)cn21 [I.2, (R)-6-(tert-butyl)-10-((6-carboxyhexyl)oxy)-2-oxo-6,7-dihydro-2H-pyrido[2′,1′:3,4]pyrazino[1,2-b]indazole-3-carboxylic acid]",–,–,–,6.5 ± 2.5,2.87,1.10,2.23,2.34
"CC(C)(C)[C@@H]1Cn2nc3c(OCCCCCCCC(=O)O)cccc3c2-c2cc(=O)c(C(=O)O)cn21 [I.6, (R)-6-(tert-butyl)-10-((7-carboxyheptyl)oxy)-2-oxo-6,7-dihydro-2H-pyrido[2′,1′:3,4]pyrazino[1,2-b]indazole-3-carboxylic acid]",–,–,–,2.6 ± 0.6,11.5,18.2,1.74,4.9
